The text below walks through data of patent US10766942B2, “Fragments of syndecan-2 having anti-angiogenic activity” (Queen Mary University of London, priority 2014, dated 2020).

In one experiment the test system is brain ECs. The experiment is described as follows: Scratch wound migration assay on brain ECs with murine syndecan-2 GST fusion proteins. The class given is cell-based. The following applies: 0.5 μM fusion protein, vs GST alone. The method, then: Scratch wound migration assays were performed in the presence of 0.5 μM of the fusion proteins indicated on brain ECs. Cell migration is measured by time lapse microscopy using an Olympus IX81 microscope with a controlled environment chamber set at 37° C., 10% CO2. Images were captured every 30 minutes using a Hamamatsu Orca ER digital camera and processed using Cell^M software (Olympus). (A) Phase contrast images 9 hours after the scratch was made. (B) EC migration speed is reduced in the presence of S2ED proteins containing the 18aa regulatory domain. Cell speed data represents mean measurements from at least 25 individual cells at the leading edge per treatment.
Migration assays were also performed on brain ECs in the presence of murine syndecan-2 GST fusion proteins—either S2ED or the truncated forms of this protein (S2EDΔP^124-F^141 and S2EDΔL^73-G^123).
Scratch wound migration assays: Scratch wound migration assays were performed on confluent monolayers of ECs. Wounds were made using a pipette tip, and fusion proteins were added to the medium and images were captured every 30 minutes for 12 hours by time lapse microscopy using an Olympus IX81 microscope. Percentage wound closure was calculated and individual cells tracked using Image J.

For experiment [1], the system named is Rat aortas (aortic ring sections). Put plainly: Rat aortic ring angiogenic sprouting assay in collagen I matrices. The class given is cell-based. The following applies: 0.5 μM in collagen I matrix; rat aortic rings; vs untreated and GST controls. On the procedure:
(A) Diagram of the murine syndecan-2 mutant proteins used in this study. (B) Rat aortas were seeded in collagen I matrices as above containing 0.5 μM of GST(control), S2ED or the mutant forms of S2ED. Sprouts from 8 rings per condition were counted and the mean calculated. Error bars represent the SEM and significance was calculated using a one way ANOVA with Bonferroni multiple comparison (p***<0.005, p****<0.0001).
In another assay with murine peptides, full length S2ED, S2EDΔP^124-F^141 (lacking adhesion regulatory domain) or S2EDΔL^73-G^123 (truncated form containing only the adhesion regulatory residues) were incorporated into collagen matrices in which aortic ring sections were embedded (FIGS. 4A and B).
Aortic ring assay: Thoracic aortas dissected from cervically dislocated 180-200 g male wistar rats (Harlan Laboratories) or 6 week old C57BL/6 mice (Charles River) were sliced into 0.5 mm sections and incubated overnight in serum free OptiMEM (Invitrogen) at 37° C. […] Angiogenic sprouts from rat and mouse aortas were counted after 4 days and 8 days respectively (Method based on that of Nicosia and Ottinetti (Laboratory Investigation 63:115-122, 1990) and modified in De Rossi et al. (Journal of Genetic Syndromes & Gene Therapy 4, 2013).

The target in another experiment is T1, CD148 (Mus musculus, UniProt Q64455).
T1 construct: endogenous in cells; bEND3.1 cells
T1 sequence (Q64455 29-1238): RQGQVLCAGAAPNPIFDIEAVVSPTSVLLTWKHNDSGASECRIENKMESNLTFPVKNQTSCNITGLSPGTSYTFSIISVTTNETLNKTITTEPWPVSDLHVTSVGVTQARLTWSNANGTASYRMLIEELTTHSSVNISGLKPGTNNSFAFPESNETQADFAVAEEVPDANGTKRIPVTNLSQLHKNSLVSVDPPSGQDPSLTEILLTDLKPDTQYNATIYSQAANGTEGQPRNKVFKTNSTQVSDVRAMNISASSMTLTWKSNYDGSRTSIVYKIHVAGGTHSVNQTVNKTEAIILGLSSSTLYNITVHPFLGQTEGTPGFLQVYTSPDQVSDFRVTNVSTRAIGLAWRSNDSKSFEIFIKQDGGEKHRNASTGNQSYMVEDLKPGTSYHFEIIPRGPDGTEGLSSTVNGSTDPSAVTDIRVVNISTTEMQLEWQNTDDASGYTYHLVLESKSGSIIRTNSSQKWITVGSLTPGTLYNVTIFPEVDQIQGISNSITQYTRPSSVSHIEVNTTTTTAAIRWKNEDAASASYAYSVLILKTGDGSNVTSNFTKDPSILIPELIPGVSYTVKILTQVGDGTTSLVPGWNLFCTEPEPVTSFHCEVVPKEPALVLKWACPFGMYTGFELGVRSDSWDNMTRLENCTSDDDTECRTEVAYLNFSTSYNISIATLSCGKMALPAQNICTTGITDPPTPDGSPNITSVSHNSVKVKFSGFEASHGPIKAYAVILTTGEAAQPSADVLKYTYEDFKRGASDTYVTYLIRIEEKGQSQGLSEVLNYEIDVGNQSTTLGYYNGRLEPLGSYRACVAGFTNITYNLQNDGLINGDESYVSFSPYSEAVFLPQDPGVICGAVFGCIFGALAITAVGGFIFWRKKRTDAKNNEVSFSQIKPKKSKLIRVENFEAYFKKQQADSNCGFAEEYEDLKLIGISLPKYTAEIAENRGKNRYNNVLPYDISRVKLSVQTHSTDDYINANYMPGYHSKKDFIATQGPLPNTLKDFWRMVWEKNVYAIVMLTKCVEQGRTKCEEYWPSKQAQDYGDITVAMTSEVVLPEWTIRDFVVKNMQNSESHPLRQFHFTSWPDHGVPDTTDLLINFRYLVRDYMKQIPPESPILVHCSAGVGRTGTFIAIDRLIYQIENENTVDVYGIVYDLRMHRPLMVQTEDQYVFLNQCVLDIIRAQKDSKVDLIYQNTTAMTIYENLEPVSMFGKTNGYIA
Put plainly: CD148 pull down from EC lysates with GST fusion protein coated beads, Western blot. Format: binding. The note with it: protein-coated beads as bait. The method, then:
(A) bEND3.1, MLEC and sEND cells express CD148. Western blot of lysates from the EC lines indicated were probed with antibodies to CD148 or β-tubulin. (B) CD148 interacts with murine syndecan extracellular core protein (S2ED). Cell lysates from sEND cells were incubated with beads coated with GST(control), S2ED, S2EDΔP^124-F^141 or S2EDΔL^73-G^123. Precipitates were analysed by Western blot for the presence of CD148. CD148 was only pulled down by forms of S2ED which contain the C-terminal 18 amino acid adhesion regulatory domain. Blot is representative of 4 experiments.
In fibroblasts the protein tyrosine phosphatase receptor CD148 interacts directly with the adhesion regulatory domain of S2ED leading to β1 integrin mediated cell attachment and spreading (Whiteford et al., 2011 Mol Biol Cell, 22(19):3609-24). To determine whether CD148 is a mediator for EC responses to S2ED the expression of CD148 on ECs from brain, lung and skin was confirmed.
CD148 pulldown and Western blot: Confluent bEND3.1 cells were lysed in 1% tritonx100 in TBS containing HALT protease and phosphatase inhibitors (Pierce). GST and S2ED were bound to glutathione-sepharose beads (GE Healthcare) and were added to cell lysates and incubated for 1 hour. Beads were isolated by centrifugation and washed twice in TBS, prior to incubation in Laemmli buffer and analysis by Western blot using standard procedures.
In general terms: Immunoblotting shows a protein as a band on a membrane.

“S2ED: murine syndecan-2 extracellular core protein, full length, GST fusion protein (SEQ ID NO 3)”: the “EC cell migration (wound closure)” value in the experiment on brain ECs was “inhibited EC cell migration”. Further, in experiment [1], the Angiogenic sprout formation result is given as “severely compromised”. In addition, the “Pull-down of CD148 from EC lysates” value with CD148 was “successfully pull-down CD148”.
Turning to “S2EDΔL^73-G^123: truncated murine syndecan-2 GST fusion protein containing only the adhesion regulatory residues (SEQ ID NO 5)”, the “EC cell migration (wound closure)” value in the experiment on brain ECs is on record as “inhibited EC cell migration”. Moreover, the Angiogenic sprout formation result in experiment [1] is “severely compromised”. The “Pull-down of CD148 from EC lysates” value in the experiment with CD148 is recorded as “successfully pull-down CD148”.
In the case of “S2EDΔP^124-F^141: murine syndecan-2 GST fusion mutant lacking adhesion regulatory domain (SEQ ID NO 4)”, the “EC cell migration (wound closure)” value with brain ECs was “did not affect cell migration”. For the same substance, in the experiment with CD148, the “Pull-down of CD148 from EC lysates” value is “No CD148 was evident”.
